# Values joined by “and” are separate entries in the source; they are usually repeats but may differ in a detail not shown here. Equal values may be shown once. Read-outs that look alike come from different tables or passages of the source.
# Assays:
# [1] = test system: ob/ob mice; test: Insulin Suppression Test (IST), blood glucose of ob/ob mice; format: in vivo, mouse; conditions: for Blood glucose levels in the IST: male ob/ob mice, postabsorption, 8 hours after last treatment, mean ± s.e.; for Reduction of hyperglycaemia in the IST: ob/ob mouse
# Source text: (§1) The B6. V-Lep ob/ob, C57BL/KsJ db/db and C57BL/6 mice used in the experiments were supplied by Jackson Lab. (via Charles River).
# (§2) Blood samples were taken from ob/ob and db/db mice in standard environmental conditions, on a normal diet (4 RF21, Mucedola) and from C57BL/6J mice on a high-fat diet (D-12331, Research Diets) for 3 months, in postabsorption conditions (fasting from 8.30 a.m. to 4.30 p.m.) from the caudal vein, with the aid of a Jelco 22G catheter (Johnson and Johnson).
# (§3) The mice were treated orally twice daily (at 8.30 a.m. and 6.30 p.m.) with ST1326 at the dose of 30 mg/kg and with metformin at the dose of 200 mg/kg, alone or in combination.
# (§4) Blood samples were taken on various different days after administration of the products and in different nutritional conditions for the serum glucose determinations, OGTT (Oral Glucose Tolerance Test) and IST (Insulin Suppression Test: Fujita et al., Diabetes 32: 804-810, 1983; Meglasson et al., J. Pharm. Exp. Therap. 266: 1454-1462, 1993; Luo et al., J. Pharm. Exp. Therap. 288: 529-534, 1999).
# In the IST, blood samples were taken 60 min after subcutaneous loading of glucose (3 g/kg), insulin (Humulin R., Lilly 2 U/kg) and somatostatin (0.5 mg/kg).
# [2] = test system: db/db mice; test: Blood glucose of db/db mice in postabsorption conditions, ST1326 and metformin alone or in combination; format: in vivo, mouse; conditions: male db/db mice, ST1326 30 mg/kg and metformin 200 mg/kg alone or in combination, twice daily for 16 days, 6 hours after last treatment, mean ± s.e.
# Source text: as §1, §2, §3, §4
# [3] = test system: db/db mice; test: Oral Glucose Tolerance Test (OGTT) in db/db mice; format: in vivo, mouse; conditions: male db/db mice, fasting overnight; for Blood glucose in the OGTT, 0 min: ST1326 30 mg/kg and metformin 200 mg/kg alone or in combination, twice daily for 37 days, 15 hours after last treatment; for Blood glucose in the OGTT, 30 min / Blood glucose in the OGTT, 60 min / Blood glucose in the OGTT, 120 min / Blood glucose in the OGTT, AUC: same treatment for 37 days; for Blood glucose in the OGTT, 30 min: 30 min after glucose loading; for Blood glucose in the OGTT, 60 min: 60 min after glucose loading; for Blood glucose in the OGTT, 120 min: 120 min after glucose loading; for Blood glucose in the OGTT, AUC: AUC 0-120 min
# Source text: as §1, §2, §3, §4
# (§5) In the OGTT, blood samples were taken 0, 30, 60 and 120 minutes after glucose loading (3 g/kg).
# [4] = test system: C57BL/6J mice on a high-fat diet; test: Blood glucose of C57BL/6J mice on a high-fat diet, postabsorption conditions; format: in vivo, mouse; conditions: male C57BL/6J mice on high-fat diet, ST1326 30 mg/kg and metformin 200 mg/kg alone or in combination, twice daily for 15 days, 6 hours after last treatment, mean ± s.e.
# Source text: (§6) An example is the C57BL/6 mouse, which, as a result of exposure to a high-fat diet, develops not only insulin resistance but also mild hyperglycaemia (Surwit et al., 37: 1163-1167, 1988; Luo et al., Metabolism 47: 663-668,1998).
# as §1, §2, §3, §4
# [5] = test system: C57BL/6 mice on a high-fat diet; test: Oral Glucose Tolerance Test (OGTT) in C57BL/6 mice on a high-fat diet; format: in vivo, mouse; conditions: male C57BL/6 mice on high-fat diet; for Blood glucose in the OGTT, 0 min: ST1326 30 mg/kg and metformin 200 mg/kg alone or in combination, twice daily for 35 days, postabsorption, 6 hours after last treatment; for Blood glucose in the OGTT, 30 min / Blood glucose in the OGTT, 60 min / Blood glucose in the OGTT, 120 min / Blood glucose in the OGTT, AUC: same treatment for 35 days; for Blood glucose in the OGTT, 30 min: 30 min after glucose loading; for Blood glucose in the OGTT, 60 min: 60 min after glucose loading; for Blood glucose in the OGTT, 120 min: 120 min after glucose loading; for Blood glucose in the OGTT, AUC: AUC 0-120 min
# Source text: as §6, §1, §2, §3, §4, §5
# [6] = test system: KKAy mouse; conditions: cited from earlier work
# [7] = test system: type 2 diabetes patients; conditions: cited from earlier work
# [8] = test system: db/db mice; test: Serum glucose of db/db mice treated with ST1326 for 45 days, postabsorption conditions; format: in vivo, mouse; conditions: for Lowering serum glucose: db/db mice; for Serum glucose levels: male db/db mice, postabsorption, 8 hours after last treatment, mean ± s.e.
# Source text: as §1, §2
# [9] = test system: ob/ob mice; test: Blood glucose of ob/ob mice in feeding conditions; format: in vivo, mouse; conditions: male ob/ob mice, ST1326 30 mg/kg and metformin 200 mg/kg alone or in combination, twice daily for 11 days, 15 hours after last treatment, mean ± s.e.
# Source text: as §1, §2, §3, §4
# [10] = ST1326 30 mg/kg and metformin 200 mg/kg alone or in combination, twice daily for 18 days
SMILES,"Blood glucose levels in the IST [1, 10]",Blood glucose levels [2],"Blood glucose in the OGTT, 0 min [3]","Blood glucose in the OGTT, 30 min [3]","Blood glucose in the OGTT, 60 min [3]","Blood glucose in the OGTT, 120 min [3]","Blood glucose in the OGTT, AUC [3]",Blood glucose levels [4],"Blood glucose in the OGTT, 0 min [5]","Blood glucose in the OGTT, 30 min [5]","Blood glucose in the OGTT, 60 min [5]","Blood glucose in the OGTT, 120 min [5]","Blood glucose in the OGTT, AUC [5]",also measured
"CN(C)C(=N)N=C(N)N [METFORMIN, metformin]",433.7 ± 34.8 mg/dL,337.8 ± 33.1 mg/dL,195.5 ± 21.5 mg/dL,530.9 ± 34.6 mg/dL,456.8 ± 52.4 mg/dL,344.4 ± 40.9 mg/dL,49700 ± 4720 mg·min/dL,146.1 ± 9.2 mg/dL,141.1 ± 11.4 mg/dL,241.2 ± 18.9 mg/dL,212.3 ± 5.0 mg/dL,186.2 ± 15.1 mg/dL,24500 ± 1180 mg·min/dL,"Blood glucose levels in the IST ([1]; oral metformin 300 mg/kg twice daily for 8 days): 412.1 ± 3.5 □ mg/dl; Reduction of hyperglycaemia in the IST ([1]; 200 mg/kg/day): ineffective; Reduction of hyperglycaemia in the IST ([1]; 600 mg/kg/day): 22%; Reduction of hyperglycaemia ([6]; 200 mg/kg/day): ineffective; Reduction of hyperglycaemia ([6]; 900 mg/kg/day): 50%; Reduction of hyperglycaemia ([7]; in combination with sulphonylureas): 25%; Reduction of hyperglycaemia ([7]; monotherapy after the failure of diet and physical exercise): 20% and 13-37%; Incidence of diarrhoea, nausea and gastrointestinal disorders ([7]; patients on metformin): approximately 20%"
"CCCCCCCCCCCCCCNC(=O)N[C@H](CC(=O)[O-])C[N+](C)(C)C [ST1326, R-4-trimethylammonio-3-(tetradecylcarbamoyl)-amino-butyrate]",524.2 ± 56.2 mg/dL,370.7 ± 30.0 mg/dL,175.3 ± 25.6 mg/dL,557.2 ± 30.6 mg/dL,498.3 ± 23.5 mg/dL,284.6 ± 20.8 mg/dL,50300 ± 2430 mg·min/dL,167.3 ± 4.7 mg/dL,156.0 ± 7.8 mg/dL,236.3 ± 11.2 mg/dL,207.0 ± 9.9 mg/dL,212.9 ± 8.6 mg/dL,25100 ± 652 mg·min/dL,Lowering serum glucose ([8]; dose of 40 mg/kg/day): inactive; Lowering serum glucose ([8]; dose of 100 mg/kg/day): effective; Serum glucose levels ([8]; oral 20 mg/kg twice daily for 45 days): 562 ± 40 mg/dL; Serum glucose levels ([8]; oral 50 mg/kg twice daily for 45 days): 350 ± 48 Δ mg/dl; Blood glucose levels [9]: 394.8 ± 25.7 mg/dL

# From patent publication US20090131515A1, “Combination of antidiabetic drugs” (SIGMA-TAU INDUSTRIE FARMACEUTICHE RIUNITE S.p.A., priority 2003, published 2009)
